Data taken from patent US9670208B2, “Serine/threonine kinase inhibitors” (Array BioPharma Inc., priority 2013, dated 2017).

What was measured:
[1] = system: PMA-stimulated P90RSK(Ser380) phosphorylation in HepG2 cells; assay: Cellular P90RSK(Ser380) Phosphorylation Assay; type: cell-based; conditions: Homo sapiens, 1.5 hours compound incubation, PMA 100 ng/mL, normalized to GAPDH, single assay or mean of multiple assays, read-out: Biological Example 2 IC50
Method: Inhibition of PMA-stimulated P90RSK(Ser380) phosphorylation was determined by the following in vitro cellular mechanistic assay, which comprises incubating cells with a compound for 1.5 hours and quantifying fluorescent pP90RSK(Ser380) signal on fixed cells and normalizing to GAPDH signal.
HepG2 cells were obtained from ATCC (Manassas, Va.) and grown in DMEM supplemented with 10% fetal bovine serum. Cells were plated in 96-well plates at 35,000 cells/well and allowed to attach overnight at 37° C./5% CO2. Diluted compounds were then added at a final concentration of 0.5% DMSO. After 1.5 hours compound incubation, cells were stimulated with the addition of phorbol 12-myristate 13-acetate (“PMA”) at a final concentration of 100 ng/mL; the PMA stimulation was a 30-minute incubation at 37° C./5% CO2. After the 30-minute PMA stimulation, cells were washed with phosphate buffered saline (“PBS”) and fixed in 3.7% formaldehyde in PBS at room temperature for 15-20 minutes. This was followed by another wash in PBS and then permeabilization in 100% MeOH at room temperature for 10-15 minutes. Following the permeabilization incubation, cells were washed in PBS/0.05% Tween-20, followed by a block in Odyssey blocking buffer (LI-COR Biosciences) for at least 1 hour. Antibodies to phosphorylated P90RSK(Ser380) (Cell Signaling #9335, rabbit monoclonal) and GAPDH (Fitzgerald 10R-G109a, mouse monoclonal) were added to the cells and incubated overnight at 4° C. pP90RSK(Ser380) antibody was used at a 1:250 dilution; GAPDH was used at a 1:10,000 dilution. After washing with PBS/0.05% Tween-20, the cells were incubated with fluorescently-labeled secondary antibodies (Anti-rabbit-Alexa Flour680, Invitrogen Cat#A21109; Anti-mouse-IRDye800CW, Rockland Inc. Cat#610-131-121) for 1 hour. Both secondary antibodies were used at a 1:1000 dilution. Cells were then washed and analyzed for fluorescence at both wavelengths using the Odyssey Infrared Imaging System (LI-COR Biosciences). Phosphorylated P90RSK(Ser380) signal was normalized to GAPDH signal.

[2] = target: human ERK-2 (Mitogen Activated Kinase 1) (Homo sapiens (Human), UniProt P28482); assay: ERK-2 Enzymatic Assay; type: biochemical; conditions: ERK-2 enzyme, 25 μM ATP; single assay or mean of multiple assays; read-out: Biological Example 1 IC50
Chain of human ERK-2 (Mitogen Activated Kinase 1) (P28482 8-360): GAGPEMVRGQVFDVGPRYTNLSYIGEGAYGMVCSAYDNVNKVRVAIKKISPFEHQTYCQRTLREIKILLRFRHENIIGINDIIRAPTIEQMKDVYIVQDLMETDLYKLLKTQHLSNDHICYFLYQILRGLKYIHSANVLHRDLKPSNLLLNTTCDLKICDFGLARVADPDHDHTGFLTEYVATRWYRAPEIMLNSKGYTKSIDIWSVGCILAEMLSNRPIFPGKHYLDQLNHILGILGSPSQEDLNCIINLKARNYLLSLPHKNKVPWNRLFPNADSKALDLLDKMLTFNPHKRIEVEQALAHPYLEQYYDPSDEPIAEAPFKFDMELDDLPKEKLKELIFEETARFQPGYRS

Compound	IC50 [1] [nM]	IC50 [2] [nM]
c1ccc(Cc2nnc3cc(-c4ccnc(NC5CCOCC5)n4)ccn23)nc1 [Example 278, 4-(3-(pyridin-2-ylmethyl)-[1,2,4]triazolo[4,3-a]pyridin-7-yl)-N-(tetrahydro-2H-pyran-4-yl)pyrimidin-2-amine]	67.6	0.8
Cn1nccc1Nc1cc(-c2ccn3c(Cc4ccc(F)cc4F)nnc3c2)ccn1 [Example 84, 4-(3-(2,4-difluorobenzyl)-[1,2,4]triazolo[4,3-a]pyridin-7-yl)-N-(1-methyl-1H-pyrazol-5-yl)pyridin-2-amine]	15.7	3.2
Cn1nccc1Nc1cc(-c2ccn3c(CC(C)(C)C)nnc3c2)ccn1 [Example 279, N-(1-methyl-1H-pyrazol-5-yl)-4-(3-neopentyl-[1,2,4]triazolo[4,3-a]pyridin-7-yl)pyridin-2-amine]	51.9	0.6
Fc1ccc(Cc2nnc3cc(-c4ccnc(NC5CCOCC5)n4)ccn23)cc1 [Example 402, 4-(3-(4-fluorobenzyl)-[1,2,4]triazolo[4,3-a]pyridin-7-yl)-N-(tetrahydro-2H-pyran-4-yl)pyrimidin-2-amine]	27.4	0.6
Cn1nccc1Nc1nccc(-c2ccn3c(Cc4ccc(F)cc4F)nnc3c2)n1 [Example 67, 4-(3-(2,4-difluorobenzyl)-[1,2,4]triazolo[4,3-a]pyridin-7-yl)-N-(1-methyl-1H-pyrazol-5-yl)pyrimidin-2-amine]	7.5	2.8
COc1ccc(Cc2nnc3cc(-c4ccnc(NC5CCOCC5)n4)ccn23)cn1 [Example 272, 4-(3-((6-methoxypyridin-3-yl)methyl)-[1,2,4]triazolo[4,3-a]pyridin-7-yl)-N-(tetrahydro-2H-pyran-4-yl)pyrimidin-2-amine]	95.4	0.9
CN1C(=O)CC(c2ccccc2)C1c1nnc2cc(-c3ccnc(NC4CCOCC4)n3)ccn12 (stereo not drawn) [Example 136, 1-methyl-4-phenyl-5-(7-(2-((tetrahydro-2H-pyran-4-yl)amino)pyrimidin-4-yl)-[1,2,4]triazolo[4,3-a]pyridin-3-yl)pyrrolidin-2-one]	–	171
CC[C@H](C)Cc1nnc2cc(-c3ccnc(Nc4ccnn4C)n3)ccn12 [Example 115, (S)—N-(1-methyl-1H-pyrazol-5-yl)-4-(3-(2-methylbutyl)-[1,2,4]triazolo[4,3-a]pyridin-7-yl)pyrimidin-2-amine]	8.3	2.8
Cn1nccc1Nc1nccc(-c2ccn3c(Cc4cccc(F)c4F)nnc3c2)n1 [Example 51, 4-(3-(2,3-difluorobenzyl)-[1,2,4]triazolo[4,3-a]pyridin-7-yl)-N-(1-methyl-1H-pyrazol-5-yl)pyrimidin-2-amine]	8.9	2.6
COc1ccc(Cc2nnc3cc(-c4ccnc(Nc5ccnn5C)n4)ccn23)cc1F [Example 40, 4-(3-(3-fluoro-4-methoxybenzyl)-[1,2,4]triazolo[4,3-a]pyridin-7-yl)-N-(1-methyl-1H-pyrazol-5-yl)pyrimidin-2-amine]	6.5	3.3
Cn1nccc1Nc1nccc(-c2ccn3c(CS(=O)(=O)c4ccccc4)nnc3c2)n1 [Example 306, N-(1-methyl-1H-pyrazol-5-yl)-4-(3-((phenylsulfonyl)methyl)-[1,2,4]triazolo[4,3-a]pyridin-7-yl)pyrimidin-2-amine]	63.7	1.8
Cn1nccc1Nc1nccc(-c2ccn3c(Cc4cccc(Cl)c4Cl)nnc3c2)n1 [Example 57, 4-(3-(2,3-dichlorobenzyl)-[1,2,4]triazolo[4,3-a]pyridin-7-yl)-N-(1-methyl-1H-pyrazol-5-yl)pyrimidin-2-amine]	4.6	0.5
Cn1nccc1Nc1nccc(-c2ccn3c(C4OCCc5ccccc54)nnc3c2)n1 (stereo not drawn) [Example 192, 4-(3-(isochroman-1-yl)-[1,2,4]triazolo[4,3-a]pyridin-7-yl)-N-(1-methyl-1H-pyrazol-5-yl)pyrimidin-2-amine]	37.5	6
O=C(c1c(F)cccc1F)N1CCOC(c2nnc3cc(-c4ccnc(NC5CCOCC5)n4)ccn23)C1 (stereo not drawn) [Example 140, (2,6-difluorophenyl)(2-(7-(2-((tetrahydro-2H-pyran-4-yl)amino)pyrimidin-4-yl)-[1,2,4]triazolo[4,3-a]pyridin-3-yl)morpholino)methanone]	486	7.5
Cc1cc(-c2nnc3cc(-c4ccnc(Nc5cnn(C)c5)n4)ccn23)nn1-c1ccc(F)cc1 [Example 419, 4-(3-(1-(4-fluorophenyl)-5-methyl-1H-pyrazol-3-yl)-[1,2,4]triazolo[4,3-a]pyridin-7-yl)-N-(1-methyl-1H-pyrazol-4-yl)pyrimidin-2-amine]	–	135
Cc1ccnc(Cc2nnc3cc(-c4ccnc(Nc5ccnn5C)n4)ccn23)c1 [Example 276, N-(1-methyl-1H-pyrazol-5-yl)-4-(3-((4-methylpyridin-2-yl)methyl)-[1,2,4]triazolo[4,3-a]pyridin-7-yl)pyrimidin-2-amine]	51.7	0.9
CC(C)Cc1nnc2cc(-c3ccnc(Nc4ccnn4C)n3)ccn12 [Example 169, 4-(3-isobutyl-[1,2,4]triazolo[4,3-a]pyridin-7-yl)-N-(1-methyl-1H-pyrazol-5-yl)pyrimidin-2-amine]	30	2.7
Cn1nccc1Nc1nccc(-c2ccn3c(Cc4cccc(-c5ccccc5)n4)nnc3c2)n1 [Example 275, N-(1-methyl-1H-pyrazol-5-yl)-4-(3-((6-phenylpyridin-2-yl)methyl)-[1,2,4]triazolo[4,3-a]pyridin-7-yl)pyrimidin-2-amine]	20	1.5
Cn1nccc1Nc1nccc(-c2ccn3c([C@H](O)c4cccc(Cl)c4)nnc3c2)n1 [Example 116, (R)-(3-chlorophenyl)(7-(2-((1-methyl-1H-pyrazol-5-yl)amino)pyrimidin-4-yl)-[1,2,4]triazolo[4,3-a]pyridin-3-yl)methanol]	19.3	3.3
CC(=O)NC(Cc1nnc2cc(-c3ccnc(Nc4ccnn4C)n3)ccn12)c1ccc(F)c(Cl)c1 (stereo not drawn) [Example 467, N-(1-(3-chloro-4-fluorophenyl)-2-(7-(2-((1-methyl-1H-pyrazol-5-yl)amino)pyrimidin-4-yl)-[1,2,4]triazolo[4,3-a]pyridin-3-yl)ethyl)acetamide]	3350	1.8
Cn1nccc1Nc1nccc(-c2ccn3cnnc3c2)n1 [Example 411, 4-([1,2,4]triazolo[4,3-a]pyridin-7-yl)-N-(1-methyl-1H-pyrazol-5-yl)pyrimidin-2-amine]	607	11
Cn1nccc1Nc1cc(-c2ccn3c([C@H](O)Cc4ccccc4)nnc3c2)ccn1 [Example 121, (R)-1-(7-(2-((1-methyl-1H-pyrazol-5-yl)amino)pyridin-4-yl)-[1,2,4]triazolo[4,3-a]pyridin-3-yl)-2-phenylethanol]	34.7	0.9
CCC=Cc1nnc2cc(-c3ccnc(Nc4ccnn4C)n3)ccn12 (stereo in doubt) [Example 258, (E)-4-(3-(but-1-en-1-yl)-[1,2,4]triazolo[4,3-a]pyridin-7-yl)-N-(1-methyl-1H-pyrazol-5-yl)pyrimidin-2-amine]	178	5.7
Cn1nccc1Nc1nccc(-c2ccn3c(CC(C)(O)C4CC4)nnc3c2)n1 (stereo not drawn) [Example 563, 2-cyclopropyl-1-(7-(2-((1-methyl-1H-pyrazol-5-yl)amino)pyrimidin-4-yl)-[1,2,4]triazolo[4,3-a]pyridin-3-yl)propan-2-ol]	> 5000	661
Cn1nccc1Nc1nccc(-c2ccn3c(Cc4cc(C5CC5)ccn4)nnc3c2)n1 [Example 35, 4-(3-((4-cyclopropylpyridin-2-yl)methyl)-[1,2,4]triazolo[4,3-a]pyridin-7-yl)-N-(1-methyl-1H-pyrazol-5-yl)pyrimidin-2-amine]	17	0.8
Cn1nccc1Nc1nccc(-c2ccn3c(CC4CC5CCC4C5)nnc3c2)n1 (stereo not drawn) [Example 163, 4-(3-(bicyclo[2.2.1]heptan-2-ylmethyl)-[1,2,4]triazolo[4,3-a]pyridin-7-yl)-N-(1-methyl-1H-pyrazol-5-yl)pyrimidin-2-amine]	20.7	2.4
c1cc(-c2ccn3c(C4CNCCO4)nnc3c2)nc(NC2CCOCC2)n1 (stereo not drawn) [Example 387, 4-(3-(morpholin-2-yl)-[1,2,4]triazolo[4,3-a]pyridin-7-yl)-N-(tetrahydro-2H-pyran-4-yl)pyrimidin-2-amine]	–	117
